Assay results taken from PubChem BioAssay (NCI).
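Dose response: 5 concentrations. Exposure: 48 h. Format: 96-well plates. Endpoint: linear interpolation; highest concentration if not reached. TGI: concentration producing complete growth inhibition.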

Legend:
Assay in all cases: inhibition of tumour cell growth, NCI panel, 48 h
[1] = system: MCF7 breast
[2] = system: OVCAR-3 ovarian
[3] = system: HCT-15 colon
[4] = system: NCI-H23 lung
[5] = system: HCT-116 colon
[6] = system: SK-MEL-28 melanoma
[7] = system: DU-145 prostate
[8] = system: HL-60(TB) leukemia
[9] = system: HCC-2998 colon
[10] = system: SK-MEL-5 melanoma
[11] = system: SW-620 colon
[12] = system: HS 578T breast
[13] = system: MDA-MB-231 breast
[14] = system: K-562 leukemia
[15] = system: OVCAR-5 ovarian
[16] = system: CCRF-CEM leukemia
[17] = system: PC-3 prostate
[18] = system: HOP-62 NSCLC
[19] = system: M14 melanoma
[20] = system: OVCAR-4 ovarian

Measured: TGI

CCP(=O)(CC)C(Cl)Cl
> 100 µM: all assays above
